Data: US20140322161A1, “ANTI-IL-6 VACCINE COMPOSITION” (PEPTINOV SAS, priority 2011, published 2014)
Bridges are numbered along the chain shown (N, C = ends). BDB = bisdiazonium-benzidine, coupling agent to KLH

Columns and labels:
hIL-6 [1] = molecular target: T1, hIL-6 (Homo sapiens, UniProt P05231); assay: Human IL-6 neutralization test on HEK293 cells (hIL-6 receptor, SEAP reporter) with purified IgGs from immunized rabbits; assay type: cell-based; conditions: purified IgGs from rabbits immunized with 100 μg of the peptide
Protocol: New Zealand rabbits free from specific pathogenic organisms (n=1 per peptide) were immunized with 100 μg of peptides hP1, hP2, hP3, hP4 and hP6 derived from human IL-6 by five immunizations with CFA/IFA on D0, D14, D28, D56 and J70. The neutralizing ability of the purified IgGs, derived from the serum of each rabbit, was tested in a human IL-6 neutralization test. This test is carried out on HEK293 cells (Human Embryonic Kidney cells) transfected with the gene encoding the human IL-6 receptor and the secreted embryonic alkaline phosphatase (SEAP) reporter gene (Supplier: Invivogen). The latter is then secreted in a dose-dependent manner in response to the human IL-6.
Plating (D0): seed a flat-bottom 96-well plate, treated for cell culture with 50,000 cells per well in 100 μL of neutralization medium. (DMEM 4.5 g/L glucose, 10% v/v FCS, 2 mM L-Glutamine, 100 U/mL Penicillin/Streptomycin, 100 μg/mL of Normocin).
In parallel a so-called “pre-incubation” plate is prepared with the desired concentration of human IL-6, rabbit antibodies and commercial anti-hIL-6 antibodies used as a positive control, all in a final volume of 200 μL of neutralization medium.
The pre-incubation plate is left at 37° C. for 2 hours. 100 μL per well is then transferred to the corresponding wells of the plate containing the cells, then the latter is incubated with 5% CO2 at 37° C. for 24 hours.
Development (D1): Fill a flat-bottom 96-well plate with 180 μL per well of QUANTI-Blue (InVivoGen, CA, USA). Add 20 μL of supernatant from the plate treated with IL-6. Incubate with 5% CO2 at 37° C. for 3 hours. Determine the quantity of secreted alkaline phosphatase using a spectrophotometer set at 620 nm.

Cynomolgus monkeys = assay: Delayed-type hypersensitivity against tetanus toxoid in immunized Cynomolgus monkeys; assay type: in vivo, Cynomolgus monkey; conditions: tetanus toxoid challenge at d90, compared to the KLH group, FIG. 8
Protocol: Briefly, the TTx vaccine (Sanofi-Pasteur, solution of 0.5 ml comprising 40 IU of Tetanus Toxoid and 0.6 mg of aluminium hydroxide) was administered intramuscularly at d59 in the thigh. Then an intradermic challenge was performed at d90 in two injection sites in the back of the monkey.
Clinical features of the cutaneous reaction were evaluated once a day for each animal before the challenge and then 24 h, 48 h and 72 h after the challenge. Each injection site was monitored for the incidence, grade and duration of three parameters (erythema, thickening, nodules) and a cumulative clinical score of delayed-type hypersensitivity (DTH) comprising these three parameters was established for each group.

hIL-6 [2] = molecular target: T1, hIL-6; assay: ELISA of sera from Cynomolgus monkeys immunized with hP2 for anti hIL-6 antibodies; assay type: in vivo, Cynomolgus monkey
Protocol: Four Cynomolgus monkeys were immunized intra-muscularly at day 0 with 150 μg of the cyclized hP2 peptide derived from hIL-6 previously described coupled to the protein carrier KLH, and then emulsified with the ISA51 adjuvant (Seppic).
Boosts were performed at d15, d30, d45 with an additional boost at d76. Blood samples were collected every two weeks until the end of the experiment (d120). These sera were tested in ELISA to evaluate the production of anti hIL-6 antibodies. A control group of four monkeys immunized with KLH only was used.

DBA/2 mice = assay: Murine model of bleomycin-induced systemic sclerosis after vaccination; assay type: in vivo; conditions: for skin fibrosis (OH-proline content of skin biopsies): mP2-immunized, FIG. 10
Text: The murine model of bleomycin-induced systemic sclerosis is a well-known model of chronic inflammatory disease with main features being dermal thickness together with skin and pulmonary fibrosis due to excessive collagen production (Adamson & Bowden (1974) Am. J. Pathol. 77:185-197)
(§1) Briefly, three groups of DBA/2 mice (Janvier, France) immunized intramuscularly four times (once in complete Freund's adjuvant (CFA), and three times in incomplete Freund's adjuvant (IFA)) every 15 days with different vaccine preparations: • 8 mice were immunized with 100 μg of the above-described cyclized mP2 peptide coupled to KLH (mP2-Bleo group) and were injected subcutaneously in the back with bleomycin • 6 mice were immunized with 100 μg of mP2 (mP2-Nacl group) and were injected subcutaneously in the back with NaCl (Negative control group) • 8 mice were group immunized with 200 μg of KLH alone (KLH-Bleo group) and were injected subcutaneously in the back with bleomycin. (Positive control group)
The inventors also used an additional control group composed of mice injected intraperitoneally with 100 μL (1 mg/mouse) of murine monoclonal anti IL-6 receptor antibody once a week (n=6).
The subcutaneous injections of 100 μL of bleomycin (0.5 mg/mL) were performed three days after the third boost and then every other day during three weeks in order to induce systemic sclerosis.
(§2) At day 54, the mice were killed. Sera samples were collected and the antibody production against mIL-6 was quantified by ELISA. Furthermore, skin biopsies were performed to evaluate the OH-proline production, indicative of collagen production, and histological sections from the back were also performed to evaluate dermal thickness.
The collagen content was measured in the skin biopsy from each mouse by assaying hydroxyproline (OH-proline) content. OH-proline represents about 13% of collagen amino acids and is measured to evaluate collagen production. […] The absorbance is read at 560 nm.
Dermal thickness from histological sections was then measured in a blind way by two independent experts.

mIL-6 = molecular target: T2, mIL-6 (Mus musculus, UniProt P08505); assay: ELISA of antibody production against mIL-6 in DBA/2 mice immunized with mP2; assay type: in vivo; conditions: 100 μg cyclized mP2 coupled to KLH, day 54 sera, FIG. 9
T2 sequence (P08505 25-211): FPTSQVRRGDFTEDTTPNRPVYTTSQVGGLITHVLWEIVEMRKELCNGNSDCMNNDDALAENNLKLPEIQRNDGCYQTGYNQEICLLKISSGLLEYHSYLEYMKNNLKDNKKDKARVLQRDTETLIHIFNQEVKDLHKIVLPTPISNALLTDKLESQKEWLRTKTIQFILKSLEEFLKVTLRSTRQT
Protocol: as §1, §2

C57BL/6 mice = assay: Murine model of chronic colitis induced by DSS after vaccination; assay type: in vivo
Text: Chronic colitis induced by Dextran Sodium Sulfate (DSS) is a well-known model of chronic inflammatory disease reproducing the main characteristics of the human diseases (Alex et al. (2009) Inflamm. Bowel Dis. 15:341-352).
Briefly, groups of 6 C57BL/6 mice (Charles River Laboratories, L'Arbresle, France) were formed. The mice were immunized 4 times (once with CFA and three times with IFA) every 15 days with different vaccine preparations. The mice were respectively immunized with PBS (DSS/PBS group), 50 μg per mouse of KLH (DSS/KLH group), and 100 μg per mouse of peptide mP1, mP2, mP3, mP4, mP5 and mP6 coupled with KLH (DSS/mIL-6 peptide group). A control H2O group was also included. Four days after the first booster, colitis was induced by absorption of Dextran Sodium Sulfate (DSS) in water (2%) over 7 days followed by 7 days of water. Three DSS/water cycles were thus carried out, after which the mice received water until the end of the protocol. The clinical signs of the disease appear approximately on the fifth day after the start of treatment with DSS (D26 of the protocol). The development of the disease is measured from the start of the first DSS cycle up to the end of the protocol by a disease activity index (DAI) including weight loss, the presence of blood in the stools and the texture of the stools. The clinical scores are determined as follows: for the texture of the stools a score of 0 (hard stools) to 4 (diarrhoea), for the presence of blood in the stools a score of 0 (absence) to 4 (macroscopic blood), and weight loss a score of 0 (<1%) to 4 (>20%). Each mouse is thus assigned a clinical score with a maximum score of 12.
Then, on D67, the mice are killed by cervical dislocation. The histological sections from colon distal biopsies are scored blind, according to the severity of the inflammation (0: absence, 1: slight, 2: moderate, 3: severe), the extent of the inflammation (0: absence, 1: mucosal, 2: mucosal and sub-mucosal, 3: transmural), crypt damage (0: absence, 1: one-third damaged, 2: ⅔ damaged, 3: only the surface of the epithelium intact, 4: total destruction of the crypts and epithelium). Each mouse is thus assigned a histological score with a maximum score of 10.

hIL-6 [3] = molecular target: T1, hIL-6; assay: ELISA cross-reactivity of sera from OF1 mice immunized with mIL-6-derived peptides, plates covered with human IL-6; assay type: in vivo; conditions: D54 sera diluted 1/500, plates covered with human IL-6
Text: Six peptides derived from murine IL-6 were chemically synthesized and coupled to a carrier protein, KLH (Keyhole Limpet Hemocyanin), five using the coupling agent bisdiazonium-benzidine (BDB) and one with glutaraldehyde. These peptides were then cyclized by the formation of disulfide bonds between cysteines (added or already present).
For each peptide, Oncins France 1 mice (OF1, Charles River Laboratories, L'Arbresle, France) free from specific pathogenic organisms were immunized by intra-muscular route with 100 μg of peptides derived from murine IL-6 mP1, mP2, mP3, mP4, mP5, and mP6 (see Table 1) in complete Freund's adjuvant (CFA) at the start of the experiment (D0) (n=4 per peptide).
Incomplete Freund's adjuvant (IFA) boosters are then given every 15 days, on D15, D30 and D45. The sera from mice on D54 are tested by ELISA with a 1/500th dilution of the serums on plates covered with murine IL-6 or human IL-6 in order to evaluate their cross-reactivity.

murine IL-6 = molecular target: T3, murine IL-6 (Mus musculus, UniProt P08505); assay: Murine IL-6 neutralization test on murine B9 hybridomas with purified IgGs from immunized rabbits; assay type: cell-based; conditions: purified IgGs from rabbits immunized with the peptide; B9 hybridoma proliferation, XTT
T3 sequence (P08505 25-211): T2 sequence (P08505 25-211)
Protocol: The neutralizing ability of purified IgGs based on serum from rabbits immunized with the peptides mP1, mP2, mP3, mP4, mP5 and mP6 respectively, was tested in a murine IL-6 neutralization test. This test is based on the fact that murine B9 hybridomas proliferate in a dose-dependent manner in response to murine IL-6 (Brakenhoff et al. (1987) J. Immunol. 139:4116-21).
Plating (D0): seed a flat-bottom 96-well plate, treated for cell culture with 5000 cells per well in 50 μL of neutralization medium. (RPMI 1640 without phenol red, 5% v/v Foetal Calf Serum (FCS), 2 mM L-Glutamine, 100 U/mL Penicillin/Streptomycin, […] of β-Mercaptoethanol)
In parallel a so-called “pre-incubation” plate is produced with the desired concentration of murine IL-6, samples and commercial anti-mIL-6 antibodies used as positive control, all in a final volume of 100 μL of neutralization medium.
The pre-incubation plate is left at 37° C. for 2 hours. 50 μL per well is then transferred to the corresponding wells of the plate containing the cells, then the latter is incubated with 5% CO2 at 37° C. for 96 hours.
Development (D4): Add 50 μL of a solution of XTT (for 2,3-bis-(2-methoxy-4-nitro-5-sulfophenyl)-2H-tetrazolium-5-carboxanilide)—0.5% electron coupling reagent to each well. Leave to incubate at 37° C. for 7 hours. Reading of the optical density on a spectrophotometer set at 450 nm.

T1 sequence (P05231 30-212): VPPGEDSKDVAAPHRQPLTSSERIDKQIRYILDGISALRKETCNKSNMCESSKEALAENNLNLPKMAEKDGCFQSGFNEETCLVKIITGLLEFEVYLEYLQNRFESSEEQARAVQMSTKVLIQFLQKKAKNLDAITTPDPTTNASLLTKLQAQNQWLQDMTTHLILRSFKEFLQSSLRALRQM

| Substance | neutralization of the biological activity of human IL-6 (hIL-6 [1]) | DTH response (cumulative clinical score) (Cynomolgus monkeys) | peak of anti-hIL-6 antibody titer kinetics (hIL-6 [2]; Cynomolgus monkeys immunized with hP2, in average) [days] | development of antibodies against hIL-6 (ELISA) (hIL-6 [2]; four Cynomolgus monkeys, 150 μg cyclized hP2 coupled to KLH in ISA51 i.m., FIG. 7) | dermal thickening (histological sections) (DBA/2 mice; bleomycin model, versus mice immunized with KLH only, identical with anti mIL-6 receptor group, FIG. 11) | skin fibrosis (OH-proline content of skin biopsies) (DBA/2 mice; injected subcutaneously with NaCl (negative control group)) | skin fibrosis (OH-proline content of skin biopsies) (DBA/2 mice; injected subcutaneously with bleomycin, same efficacy as anti IL-6 receptor antibody group) | development of antibodies against mIL-6 (ELISA) (mIL-6) | histological colitis score (C57BL/6 mice; D67 colon distal biopsies, compared with control mice treated with PBS or KLH alone, FIG. 3) | disease activity index (DAI) (C57BL/6 mice; DSS-treated C57BL/6 mice, 100 μg peptide coupled with KLH, compared with the control groups, FIG. 2) | reduction of the length of the colon (C57BL/6 mice; DSS-treated C57BL/6 mice, compared with control mice, FIG. 4) | cross-reactivity with the human cytokine (ELISA) (hIL-6 [3]) | neutralization of the biological activity of murine IL-6 (murine IL-6) |
| --- | --- | --- | --- | --- | --- | --- | --- | --- | --- | --- | --- | --- | --- |
| Acetyl+C78ESSKEALAENNLNLPK94C-Y-BDB (Ac-CESSKEALAENNLNLPKCY-{BDB}; disulfide 1-18 (inferred); also: coupled to KLH via BDB) [hP2, peptide derived from hIL-6 region 78-94] | neutralize the biological activity of the human IL-6 in a dose-dependent manner | marked attenuation of the DTH response | ~60 | developed antibodies against hIL-6 |  |  |  |  |  |  |  |  |  |
| Acetyl+C76MNNDDALAENNLKLPE92C-Y-BDB (Ac-CMNNDDALAENNLKLPECY-{BDB}; disulfide 1-18 (inferred)) [mP2, peptide derived from mIL-6 region 76-92] |  |  |  |  | lower dermal thickening | did not develop skin fibrosis | protected from the development of fibrosis | developed antibodies against mIL-6 | significantly reduced histological score | significantly reduced disease activity index | significantly less severe reduction of the colon | apart from the antibodies directed against the peptide mP2 | neutralize the biological activity of murine IL-6 in a dose-dependent manner |
